{"source": "paper PMC8748874", "about": "“Structures of the human peroxisomal fatty acid transporter ABCD1 in a lipid environment” (Communications Biology, 2022)", "experiment_in_all_cases": "molybdate-based colorimetric ATPase assay", "format_in_all_cases": "biochemical", "key": {"ABCD1 (ALDP) [1]": {"biological_target": "T1, ABCD1 (ALDP) (Homo sapiens, UniProt P33897)", "T1 construct": "full length, codon-optimized synthetic gene; C-terminal eYFP-Rho1D4 tag cut off with 3C protease; HEK293 Flp-In TREX; homodimer; in DDM/CHS, liposomes or MSP1D1 nanodiscs", "T1 sequence (P33897 whole entry)": "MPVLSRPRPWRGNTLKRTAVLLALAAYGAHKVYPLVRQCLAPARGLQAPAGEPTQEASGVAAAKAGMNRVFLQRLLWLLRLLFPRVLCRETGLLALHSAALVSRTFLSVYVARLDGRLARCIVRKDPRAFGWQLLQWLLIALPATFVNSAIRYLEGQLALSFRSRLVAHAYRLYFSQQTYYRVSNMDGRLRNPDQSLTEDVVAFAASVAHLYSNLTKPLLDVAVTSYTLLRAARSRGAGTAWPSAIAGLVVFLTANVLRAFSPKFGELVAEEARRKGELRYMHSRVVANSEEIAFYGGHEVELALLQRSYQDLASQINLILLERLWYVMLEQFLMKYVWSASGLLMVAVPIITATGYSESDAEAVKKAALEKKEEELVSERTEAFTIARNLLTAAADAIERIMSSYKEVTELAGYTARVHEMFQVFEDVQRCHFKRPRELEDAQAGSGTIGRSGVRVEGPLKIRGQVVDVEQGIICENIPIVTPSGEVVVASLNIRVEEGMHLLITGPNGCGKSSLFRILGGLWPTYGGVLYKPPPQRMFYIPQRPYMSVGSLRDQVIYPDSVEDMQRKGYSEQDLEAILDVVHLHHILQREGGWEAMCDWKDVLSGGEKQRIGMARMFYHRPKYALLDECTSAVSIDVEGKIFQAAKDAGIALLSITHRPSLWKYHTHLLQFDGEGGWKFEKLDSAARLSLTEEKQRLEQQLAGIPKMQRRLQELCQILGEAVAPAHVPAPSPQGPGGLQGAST", "conditions": "10 mM MgCl2, pH 7.5, 37 °C"}, "ABCD1 (ALDP) [2]": {"biological_target": "T1, ABCD1 (ALDP)", "conditions": "DDM/CHS detergent; 5 mM ATP, 10 mM MgCl2, pH 7.5, 37 °C"}, "ABCD1 (ALDP) [3]": {"biological_target": "T1, ABCD1 (ALDP)", "conditions": "DDM/CHS detergent; 5 mM ATP, 10 mM MgCl2, pH 7.5, 37 °C", "remark": "listed apart in the source"}, "ABCD1 (ALDP) [4]": {"biological_target": "T1, ABCD1 (ALDP)", "conditions": "DDM/CHS detergent; 5 mM ATP, 10 mM MgCl2, pH 7.5, 37 °C; with C24:0-CoA; suggested competition for same site; no stimulation alone"}}}
{"smiles": "Nc1ncnc2c1ncn2[C@@H]1O[C@H](COP(=O)(O)OP(=O)(O)OP(O)(O)=S)[C@@H](O)[C@H]1O", "note": "[ATPγS]", "values": [{"measurement": "inhibition of ATPase activity at 5 mM", "setting": "ABCD1 (ALDP) [1]", "value": "sensitive to inhibition by sodium orthovanadate (VO4) or the non-hydrolysable ATP analog ATPγS"}]}
{"smiles": "CCCCCCCC/C=C\\CCCCCCCC(=O)SCCNC(=O)CCNC(=O)[C@H](O)C(C)(C)COP(=O)(O)OP(=O)(O)OC[C@H]1O[C@@H](n2cnc3c(N)ncnc32)[C@H](O)[C@@H]1OP(=O)(O)O", "note": "[C18:1-CoA]", "values": [{"measurement": "ATPase rate stimulation", "setting": "ABCD1 (ALDP) [2]", "value": "we also observed ATPase rate stimulation by C18:1-CoA"}]}
{"smiles": "CCCCCCCCCCCCCCCCCCCCCCCC(=O)SCCNC(=O)CCNC(=O)[C@H](O)C(C)(C)COP(=O)(O)OP(=O)(O)OC[C@H]1O[C@@H](n2cnc3c(N)ncnc32)[C@H](O)[C@@H]1OP(=O)(O)O", "note": "[C24:0-CoA]", "values": [{"measurement": "ATPase rate stimulation at 0.1 and 1 mM", "setting": "ABCD1 (ALDP) [3]", "value": "we observed ATPase rate stimulation for C24:0-CoA and C26:0-CoA"}]}
{"smiles": "CCCCCCCCCCCCCCCCCCCCCCCCCC(=O)SCCNC(=O)CCNC(=O)[C@H](O)C(C)(C)COP(=O)(O)OP(=O)(O)OC[C@H]1O[C@@H](n2cnc3c(N)ncnc32)[C@H](O)[C@@H]1OP(=O)(O)O", "note": "[C26:0-CoA]", "values": [{"measurement": "ATPase rate stimulation at 0.1 and 1 mM", "setting": "ABCD1 (ALDP) [3]", "value": "we observed ATPase rate stimulation for C24:0-CoA and C26:0-CoA"}]}
{"smiles": "CC(=O)SCCNC(=O)CCNC(=O)[C@H](O)C(C)(C)COP(=O)(O)OP(=O)(O)OC[C@H]1O[C@@H](n2cnc3c(N)ncnc32)[C@H](O)[C@@H]1OP(=O)(O)O", "note": "[acetyl-CoA]", "values": [{"measurement": "decrease of C24:0-CoA stimulated ATPase", "setting": "ABCD1 (ALDP) [4]", "value": "it can partially inhibit ATPase stimulation by C24:0-CoA"}]}
{"smiles": "[O]=[V]([OH])([OH])[OH]", "note": "[sodium orthovanadate]", "values": [{"measurement": "inhibition of ATPase activity at 5 mM", "setting": "ABCD1 (ALDP) [1]", "value": "ATP hydrolysis was sensitive to inhibition by sodium orthovanadate (VO4)"}]}
